# Data from patent US20080146511A1, “SELECTION METHOD OF PEPTIDES, PEPTIDES, METHOD AND KIT OF INFECTION IDENTIFICATION BY MYCOBACTERIUM LEPRAE, PHARMACEUTICAL OR IMMUNOLOGICAL COMPOSITIONS CONTAINING PEPTIDES OF MYCOBACTERIUM LEPRAE OR SEQUENCES FUNCTIONALLY EQUIVALENT” (Fundacao Oswaldo Cruz - FIOCRUZ, priority 2006, published 2008).
# Entries after “also recorded” stand apart in the source; their conditions may differ.
# System: PBMC (peripheral blood mononuclear cells)
# Assay type: cell-based, human
# Set-up: key to IFN-γ response specificity mark (asterisk): *: Peptides that induced response in leprosy patients only, or contact groups (but not in TB or EC groups) appear with an asterisk
# Conditions: for IFN-γ response specificity mark (asterisk) / specificity of IFN-γ response (PB and HC versus TB, EC, NEC): PBMC, day 5; for IFN-γ response specificity mark (asterisk): peptide 10 μg/ml, leprosy patients/contacts vs TB and EC groups; for comparison of IFN-γ levels between groups (ANOVA, Tukey post hoc): PB, MB, HC, TB, EC; for specificity of IFN-γ response (PB and HC versus TB, EC, NEC) / IFN-γ responses in groups TB and EC: 10 μg/ml; for IFN-γ responses in groups TB and EC: PBMC of TB patients and endemic controls, day 5, cutoff 125 pg/ml
Sequence,IFN-γ response specificity mark (asterisk),further results
"LDIYTTLARDMAAIP [p71, M. leprae ML1553 proS aa 180-194]",p71*,–
"VYLYNYLLAETSHVL [p86, M. leprae ML0840c aa 287-301]",p86*,–
"MQEYRGLTSHTPCCR [p70, M. leprae ML1420 aa 93-107]",p70*,–
"RVSYGSECRSGNCLR [p40, M. leprae ML0008c aa 107-121]",p40*,–
"LATVQYDDRRRFTKE [p91, M. leprae ML2347 aa 301-315]",p91*,"capacity to discriminate PB patients from exposed healthy individuals (HC): discriminate individuals with known infection by Mycobacterium leprae (patients PB) from those individuals exposed to said microorganism, but healthy; comparison of IFN-γ levels between groups (ANOVA, Tukey post hoc): induced the same kind of response"
"DAEWLKLTSLGLRPR [p73, M. leprae ML1829 aa 108-122]",p73*,–
"RLDGTTLEV [p69, M. leprae ML1419c aa 113-121]",p69*,"comparison of IFN-γ levels between groups (ANOVA, Tukey post hoc): significantly higher in HC (p=0.02) and in PB (p=0.01); specificity of IFN-γ response (PB and HC versus TB, EC, NEC): specific, inducing good responses in groups PB and HC, and no response in groups TB, EC or NEC"
"LNQLVSLVKQIFVQQ [p47, M. leprae ML0394c aa 73-87]",p47*,–
"KKRLTLLSGAMARRA [p82, M. leprae ML0394c aa 141-155]",p82*,–
"FDEYRAMFALSAMDL [p56, M. leprae ML0308 aa 17-31]",p56*,–
"MATIRTVRNLKLCNP [p37, M. leprae ML0008c aa 1-15]",–,IFN-γ responses in groups TB and EC: induced unexpected responses in groups EC or TB
"EAVLLRLDGTTLEVE [p65, M. leprae ML1419c aa 108-122]",p65*,"specificity of IFN-γ response (PB and HC versus TB, EC, NEC): specific, inducing good responses in groups PB and HC, and no response in groups TB, EC or NEC"
"LLEEGVIVL [p68, M. leprae ML1419c aa 267-275]",p68*,"capacity to discriminate PB patients from exposed healthy individuals (HC): discriminate individuals with known infection by Mycobacterium leprae (patients PB) from those individuals exposed to said microorganism, but healthy; comparison of IFN-γ levels between groups (ANOVA, Tukey post hoc): induced the same kind of response"
"NHAVSSDFKTRSTNT [p54, M. leprae ML2567 aa 72-86]",p54*,–
"RRTVKILRPLPSNIT [p53, M. leprae ML2567 aa 95-109]",p53*,–
"SGRVTYLNPVGVKWM [p67, M. leprae ML1419c aa 51-65]",p67*,"capacity to discriminate PB patients from exposed healthy individuals (HC): discriminate individuals with known infection by Mycobacterium leprae (patients PB) from those individuals exposed to said microorganism, but healthy; comparison of IFN-γ levels between groups (ANOVA, Tukey post hoc): higher in PB"
"GNAMTTLGGRGISVV [p79, M. leprae ML0098 fbpC aa 84-98]",–,IFN-γ responses in groups TB and EC: induced responses in individuals in groups TB and EC; also recorded: most frequent responses in groups EC or TB
"DDFLSLQRSISPNSY [p44, M. leprae ML0126 aa 251-265]",p44*,–
"LDDFLSLQRSISPNS [p42, M. leprae ML0126 aa 250-264]",p42*,–
"VKAVVDDVNAILLTGR [p74, M. leprae ML1915 aa 89-104]",p74*,–
"VGKVQGLLARLLTLP [p76, M. leprae ML2498 aa 75-89]",p76*,–

Sequence,IFN-γ response specificity mark (asterisk),further results
"GINLPKDELTAFGRK [p63, M. leprae ML0757c aa 6-20]",p63*,–
"YGQVVRDVENTLRYL [p80, M. leprae ML0126 aa 125-139]",p80*,–
"GRYYAEINSAKMYFG [p49, M. leprae ML1057 aa 10-24]",p49*,–
"THAFDLVLSSHLLFT [p57, M. leprae ML0308 aa 139-153]",–,IFN-γ responses in groups TB and EC: induced responses in individuals in groups TB and EC
"LILGLLPAI [p61, M. leprae ML0398c aa 16-24]",p61*,"specificity of IFN-γ response (PB and HC versus TB, EC, NEC): more specific than longer 15-mer peptide"
"LQAYSNLFGRTSAMQ [p92, M. leprae ML2452c aa 28-42]",p92*,"capacity to discriminate PB patients from exposed healthy individuals (HC): discriminate individuals with known infection by Mycobacterium leprae (patients PB) from those individuals exposed to said microorganism, but healthy; comparison of IFN-γ levels between groups (ANOVA, Tukey post hoc): induced the same kind of response"
"DATFQVIFSQHVHLS [p83, M. leprae ML0394c aa 97-111]",p83*,–
"QLLGQTADV [p52, M. leprae ML1057 aa 59-67]",p52*,"specificity of IFN-γ response (PB and HC versus TB, EC, NEC): specific, inducing good responses in groups PB and HC, and no response in groups TB, EC or NEC"
"TIEFLWQEGHSAHIE [p72, M. leprae ML1553 proS aa 154-168]",–,IFN-γ responses in groups TB and EC: induced responses in individuals in groups TB and EC; also recorded: most frequent responses in groups EC or TB
"LQPYRLLRGGDSEYW [p75, M. leprae ML2177c aa 169-183]",p75*,"capacity to discriminate PB patients from exposed healthy individuals (HC): discriminate individuals with known infection by Mycobacterium leprae (patients PB) from those individuals exposed to said microorganism, but healthy; comparison of IFN-γ levels between groups (ANOVA, Tukey post hoc): significantly higher in HC"
"LTVVVKQRSKAFRPS [p39, M. leprae ML0008c aa 24-38]",p39*,–
"DDIWRTLASAVITGN [p88, M. leprae ML1189c aa 55-69]",p88*,–
"DSTDTTDWSTAMTDA [p77, M. leprae ML2703 trxB aa 331-335]",p77*,–
"GMDVGKVEALKIDGD [p93, M. leprae ML2591 mce1C aa 62-76]",–,IFN-γ responses in groups TB and EC: most frequent responses in groups EC or TB
"QVIFRDLTTQKAAEE [p66, M. leprae ML1419c aa 137-151]",p66*,–
"TRLLTVVVKQRSKAF [p38, M. leprae ML0008c aa 21-35]",p38*,–
"AILYRKIHGQDPAER [p60, M. leprae ML0398c aa 288-302]",–,IFN-γ responses in groups TB and EC: induced responses in individuals in groups TB and EC
"AAALEQLLGQTADVA [p51, M. leprae ML1057 aa 54-68]",p51*,"specificity of IFN-γ response (PB and HC versus TB, EC, NEC): specific, inducing good responses in groups PB and HC, and no response in groups TB, EC or NEC"
"QLMYLIEITSETKAL [p48, M. leprae ML0394c aa 22-36]",p48*,–
"GDVWKSIVHLRSTRH [p81, M. leprae ML0126 aa 180-194]",p81*,–
